The results in this text go back to article PMC9532951, “Identification and characterization of a novel SNAT2 (SLC38A2) inhibitor reveals synergy with glucose transport inhibition in cancer cells” (Frontiers in Pharmacology, 2022).

One assay has as its system SNAT2. The assay can be described thus: Radiolabelled proline uptake in amino acid depleted SKOV3 cells. The format is cell-based, human. To be noted: for inhibition of proline uptake: 10 mM. The procedure:
(§1) Functional characterisation of plasma membrane transporters in human cancer cells was determined at 37°C using an array of radiolabelled amino acid substrates. Modified Hanks HEPES-buffered salts solution (mHBSS; 137 mM NaCl; 5.4 mM KCl; 2.7 mM K2HPO4; 1 mM CaCl2; 0.5 mM MgCl2; 0.44 mM KH2PO4; 0.4 mM MgSO4; 5 mM D-glucose; 5 mM HEPES; pH 7.4) was used to wash and incubate cells where sodium dependent transport was measured, while N-methyl-D-glucamine (NMDG) and potassium salts substituted sodium in NMDG mHBSS to measure sodium independent uptake. For the assay, cells were seeded in 35 mm dishes and, once confluent, were washed thrice with warm mHBSS solution and incubated with mHBSS containing an 100 µM amino acid at a final specific activity of ≥2000 cpm/nmol (U-[^14C]amino acids were from PerkinElmer). After 6 min, cells were washed thrice with ice-cold mHBSS, lysed with 500 µl of 0.1 M HCl, detached with a cell scraper and triturated. A 400 µl aliquot was used for scintillation counting, while the remainder was saved for protein mass quantification by Bradford assay. Transport rates were normalised to the protein content of the culture dish.
IC50 were calculated using equation y=ymax(1−x/x+IC50)

Assay [1] deals with SNAT1 and SNAT2. Description: FMP assay in HCC1806 clones C10 (ASCT2ko) and D126 (ASCT2ko, SNAT2ko). Format: cell-based, human. The settings on record: MeAIB 10 mM; glutamine 1 mM. As for the experimental part:
(§2) To delete the SNAT2 (SLC38A2) gene in modified HCC1806 cells (clone C10 nullizygous for ASCT2 ([Broer et al., 2019])), the GeneArt CRISPR Nuclease Vector with OFP Reporter Kit (Invitrogen; A21174) was employed and complementary 19–20 bp long single-stranded oligonucleotides with overhangs were designed to produce a guide RNA (gRNA) for the Cas9 nuclease that would target exon 7 of the SNAT2 gene. Colonies were analysed by sequencing using the U6 primer included in the GeneArt CRISPR Nuclease Vector with OFP Reporter kit. Plasmids that contained the correct CRISPR nuclease construct were then used to transfect HCC1806 cells with Lipofectamine 2000 (Invitrogen). Prior to transfection, medium was replaced with 2 ml of fresh DMEM/F-12 (supplemented with 10% heat-inactivated FBS and 2 mM glutamine). Plasmid DNA (4 µg) and 10 µL of Lipofectamine 2000 were incubated separately for 5 min at room temperature in 500 µl of Opti-MEM (Invitrogen) before being combined and incubated for a further 30 min at room temperature. The DNA-Lipofectamine complex was then added to the cells in a dropwise manner and allowed to be absorbed over 6 h at 37°C, after which the medium was renewed with fresh DMEM/F-12. Cells were checked for red fluorescence using an EVOS FL cell imaging system (Thermo Fisher Scientific) 48–72 h post transfection. Subsequently, cells were detached using 0.25% Trypsin EDTA. After harvesting and washing thrice with PBS (pH 7.4), cells were resuspended in PBS (pH 7.4) supplemented with 5 mM glucose and 1% dialysed and heat inactivated FBS and passed through a 100 μm cell strainer. The cell filtrate was then pelleted once more and resuspended in the same buffer. Cells were sorted using an ARIA II FACS machine and individually dispensed into the wells of a 96-well plate. Nullizygous clones were identified using a series of assays including the FLIPR membrane potential assay, western blotting and sequencing.
(§3) The FLIPR Membrane Potential Blue Explorer Kit (Molecular Devices) was used to characterise inhibitors and to optimise a high-throughput compound screen. Cells were seeded at approximately 60,000 cells/well on a 96-well plate and allowed to attach and grow overnight in a cell incubator. The next day, the cells were washed once with mHBSS and incubated in a starvation medium (composed of mHBSS with 1% dialysed heat-inactivated FBS, 23 mM NaHCO3, 10 U/ml penicillin and 10 μg/ml streptomycin) for 24 h. Cells were then washed once with mHBSS and incubated with 50 µl of the mHBSS-resuspended FMP assay dye and 50 µl of mHBSS (with or without inhibitors) and incubated at room temperature for 30 min. The plate was then placed in an EnSpire Multimode plate reader (PerkinElmer) and four sequential measurements of fluorescence were recorded as a baseline reference. Immediately after the baseline measurements were taken, 25 µl of 5 mM glutamine dissolved in mHBSS was injected into each well and the plate was shaken orbitally for 5 s before a series of consecutive fluorescence measurements were taken. The excitation wavelength was set to 530 nm and the emission was detected at 565 nm. The Δ fluorescent signal reported in the figures was taken 30 s after substrate addition. After the assay was complete, the liquid content of the plate was carefully removed, and the cell monolayer inspected to ensure it remained intact throughout the course of the assay.

For assay [2], the system named is SNAT1/2. Description: [14C]glutamine uptake in HCC1806 cells. The format is cell-based, human. The procedure:
as §1

Assay [3] has as its system SNAT1/2. The assay can be described thus: FMP assay: depolarisation by amino acid substrates in amino acid depleted HCC1806 cells. The format is cell-based, human. To be noted: for FMP fluorescence reading: amino acid 1 mM final. As for the experimental part:
as §3, with “The next day, the cells were washed once with mHBSS and incubated in a starvation medium (composed of mHBSS with 1% dialysed heat-inactivated FBS, 23 mM NaHCO3, 10 U/ml penicillin and 10 μg/ml streptomycin) for 24 h.” left out, “The Δ fluorescent signal reported in the figures was taken 30 s after substrate addition.” left out

The next assay concerns the target T1, SNAT1 (Homo sapiens, UniProt Q9H2H9).
T1 construct: SNAT1 remained active as indicated by the Na^+-dependence of alanine uptake; endogenous in cells; host or cells: HCC1806 clone D126 (ASCT2ko, SNAT2ko), amino acid depleted for 24 h
T1 sequence (Q9H2H9 1-487): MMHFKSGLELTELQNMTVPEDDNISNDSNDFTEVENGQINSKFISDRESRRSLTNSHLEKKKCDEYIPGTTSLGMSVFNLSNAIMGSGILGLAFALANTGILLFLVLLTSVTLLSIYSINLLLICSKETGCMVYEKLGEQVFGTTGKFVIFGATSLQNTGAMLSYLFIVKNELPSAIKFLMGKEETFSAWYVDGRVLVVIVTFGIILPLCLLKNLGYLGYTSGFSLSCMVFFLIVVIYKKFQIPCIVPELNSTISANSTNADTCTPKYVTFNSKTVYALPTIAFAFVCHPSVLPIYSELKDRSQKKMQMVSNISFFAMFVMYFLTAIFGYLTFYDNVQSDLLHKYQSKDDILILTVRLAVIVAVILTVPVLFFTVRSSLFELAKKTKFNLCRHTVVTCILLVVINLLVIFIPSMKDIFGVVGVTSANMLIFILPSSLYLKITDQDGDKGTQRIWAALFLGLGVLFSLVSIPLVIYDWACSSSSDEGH
Description: Alanine uptake in HCC1806 D126 (ASCT2ko, SNAT2ko) cells. The format is cell-based. As for the experimental part:
as §2, §1

In assay [4] the test system is SNAT1 and SNAT2. Description: High-throughput compound screen, FMP assay in 384-well format (primary, confirmatory, control compounds). The format is cell-based, human. To be noted: 10 mM, 1 mM glutamine. As for the experimental part:
For the high-throughput compound screen, the FMP assay was adapted into a 384-well format within the ANU Centre for Therapeutic Discovery. […] Compounds Australia stores compounds under robust environmental conditions and supplies them in assay ready plate format. We screened 33,934 compounds from the Collection Scaffold Library. Cells (10,000/well) were seeded into Corning 384-well black walled plates (CLS3985; Sigma-Aldrich) using a Multidrop Combi liquid dispensing robot (Thermo Fisher) in a 40 µl volume. Once seeded, cells were allowed to grow in a microplate incubator (Liconic) for 24 h at 37°C (humidified atmosphere with 95% air and 5% CO2). Subsequently, plates were washed thrice with 50 µL of mHBSS using a 405 TS washer (BioTek). Then, 50 µl of starvation medium was added and cells were incubated again for 24 h.
Assay-ready compound plates (384 well plates containing compound or DMSO controls) were then prepared prior to addition to cells. In addition to the supplied compounds, 5 µl γ-glutamyl-hydroxamate (GHX, 60 mM dissolved in mHBSS, serving as an inhibitor control) was added into inhibitor control wells using a JANUS G3 robot (PerkinElmer). Subsequently, 25 uL of mHBSS was dispensed into all wells of the 384 well plate using a Multidrop Combi. All samples were then mixed using the JANUS G3 robot and 15 µl dispensed on top of the cell monolayer to reach a final concentration of 10.05 µM.
The FMP dye was solved freshly with mHBSS, 20 µl of which was deposited into each well using the Multidrop Combi, and the cells were incubated at room temperatur for 30 min. Each plate was then placed in an EnVision microplate reader (PerkinElmer) and a single baseline measurement was taken for each well (bottom reads excitation at 531, emission at 579 nm). The plate was then transferred to the Multidrop Combi and 10 µl/well of 5 mM glutamine was dispensed into each well. After linearly shaking for 5 s, microplates were returned to the EnVision microplate reader for a single post-injection measurement per well. The change of fluorescence was measured after 60 s.
Z′ scores were calculated from the controls onboard each of the 384-well plates assayed in the primary and secondary screen as described by Zhang et al., ([Zhang et al., 1999]). For the control inhibitor γ-glutamyl-hydroxamate (GHX) a Z’ score of 0.717 was determined, which was a sufficient signal for a HTS.

Another assay concerns HCC1806 cells. The assay can be described thus: [14C]alanine uptake in non-depleted HCC1806 cells. To be noted: amino acid replete HCC1806 cells. Format: cell-based, human. As for the experimental part: as §1

Each structure is given as a SMILES string. Values joined by “and” are separate entries in the source; they are usually repeats but may differ in a detail not shown here. Equal entries are not always repeated.

Turning to `CNC(C)(C)C(=O)O` [MeAIB, N-methyl-aminoisobutyric acid], the “inhibition of proline uptake” value is given as “strong inhibition” in the assay with SNAT2 (Figure 4A) and “almost completely” in the assay with SNAT2 (Figure 4D (15 h starvation)). Also, the “Proline uptake (nmol / mg protein x 6 min)” value in the assay with SNAT2 (Figure 4A, 10mM, replicates 1-3) was 3.275 nmol / mg protein x 6 min and 3.216 nmol / mg protein x 6 min and 2.965 nmol / mg protein x 6 min; with SNAT2 (Figure 5B, reference inhibitors, replicates), 1.301 nmol / mg protein x 6 min and 1.471 nmol / mg protein x 6 min and 1.547 nmol / mg protein x 6 min. The “FMP signal in D126 cells (ASCT2ko, SNAT2ko) compared to C10” value with SNAT1 and SNAT2 [1] is 42%. In addition, the Glutamine uptake was 39.8616 nmol / mg protein x 6 min and 35.3498 nmol / mg protein x 6 min and 40.7838 nmol / mg protein x 6 min in the assay with SNAT1/2 [2] (AA+ (growth medium), 100 µM glutamine, replicates 1-3); 8.629 nmol / mg protein x 6 min and 3.7831 nmol / mg protein x 6 min and 8.492 nmol / mg protein x 6 min in the assay on SNAT1/2 [2] (AA- (starvation medium 24 h), 100 µM glutamine, replicates 1-3). For the same compound, the “Glutamine uptake (nmol / mg protein x 6 min)” value in the assay with SNAT1/2 [2] (Figure 3D, replicates 1-3) is 35.1959 nmol / mg protein x 6 min and 29.1234 nmol / mg protein x 6 min and 25.7847 nmol / mg protein x 6 min. The “reduction of glutamine uptake” value in the assay on SNAT1/2 [2] (amino acid depleted HCC1806 cells (24 h), 100 µM glutamine) turned out to be 80%. Also, the “inhibition of glutamine uptake” value with SNAT1/2 [2] (fed HCC1806 cells) is “barely inhibited”. In addition, the “FMP response as substrate” value in the assay with SNAT1/2 [3] (1 mM) was “weaker signal”. Further, the FMP fluorescence reading in the assay on SNAT1/2 [3] (t=0 s) was 49084 and 50100 and 40663; with SNAT1/2 [3] (t=15 s) it was 81984 and 86589 and 75934; in the assay with SNAT1/2 [3] (t=30 s), 86634 and 91101 and 78520; in the assay with SNAT1/2 [3] (t=45 s), 90066 and 93398 and 80464; with SNAT1/2 [3] (t=60 s) it was 92350 and 95113 and 80900; in the assay with SNAT1/2 [3] (t=75 s) it was 92919 and 96006 and 80942. Also, the FMP fluorescence reading was 93944 and 96169 and 81331 in the assay on SNAT1/2 [3] (t=90 s); 93680 and 96448 and 80487 in the assay with SNAT1/2 [3] (t=105 s); 93733 and 95947 and 80206 in the assay with SNAT1/2 [3] (t=120 s); 93032 and 95155 and 78841 with SNAT1/2 [3] (t=135 s); 48467 and 50314 and 40490 in the assay with SNAT1/2 [3] (t=-15 s); 48576 and 50230 and 40217 with SNAT1/2 [3] (t=-30 s, replicates 1-3). In addition, the “Alanine uptake (nmol / mg protein x 6 min)” value at SNAT1 (Figure 4B, 10mM, replicates 1-3) was 11.1023 nmol / mg protein x 6 min and 10.5839 nmol / mg protein x 6 min and 9.888 nmol / mg protein x 6 min. For the same compound, the “inhibition of alanine uptake” value against SNAT1 (HCC1806 D126, Figure 4B, betaine and MeAIB 10 mM) was “inhibition”.
Consider `OC[C@H]1OC(O)[C@H](O)[C@@H](O)[C@@H]1O` (stereo partly shown) [glucose], for which the “influence on FMP signal” value with SNAT1 and SNAT2 [4] is “did not influence the signal”.
Consider `N[C@@H](CCC(=O)Nc1ccc([N+](=O)[O-])cc1)C(=O)O` [GPNA, γ-glutamyl-p-nitroanilide], for which, in the assay on HCC1806 cells, the “inhibition of alanine transport” value is “inhibited a large fraction of alanine transport”.
With `CC(=O)C(=O)O` [pyruvate], in the assay with SNAT1 and SNAT2 [4], the “influence on FMP signal” value is listed as “did not influence the signal”.
